Assay results taken from patent US6372774B1, “Derivatives of N-phenylpyrazoles” (Rhone-Poulenc Agriculture Ltd., priority 1985, dated 2002).

What was measured:
Type in all cases: in vivo
[1] = system: Spodoptera littoralis (Egyptian Cotton Worm); test: Test 2: leaf disc spray test, Spodoptera littoralis larvae; conditions: foliar, application of 500 ppm, 2nd instar larvae on French bean leaf discs, sprayed
Description: One or more of the dilutions of the compounds to be tested were made in 50% aqueous acetone.
Test species: Spodoptera littoralis (Egyptian Cotton Worm)
French bean leaf discs were set in agar in petri dishes and infected with 5 2nd instar larvae. Four replicate dishes were assigned to each treatment and were sprayed under a Potter Tower with the appropriate test dilution. After 2 days, live larvae were transferred to similar dishes containing untreated leaves set in agar. Two or three days later, the dishes were removed from the constant temperature (25° C.) room in which they had been held and the mean percentage mortalities of larvae were determined.

[2] = system: Periplaneta americana; test: Test 5: injection into cockroaches; conditions: dose of 5 micrograms/g insect body weight, injected in acetone; five days after treatment
Method: 0.2 microliters of an acetone solution of the compound was injected through the soft cuticle between the leg and thorax of ten insects, to give a dose rate of 5 micrograms per g of insect body weight. Ten cockroaches were similarity injected with 0.2 microliters of acetone alone to serve as controls. After treatment the insects were held in plastic boxes with appropriate food. Five days after treatment the numbers of dead and alive insects were counted and percentage mortalities calculated.

[3] = system: Plutella xylostella (Diamond-back Moth); test: whole plant or invertebrate; conditions: foliar, read-out: Plutella % m 500 ppm
Summary of the method: (§1)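 Compounds were diluted in 50% aqueous acetone and sprayed in a Potter Tower onto turnip leaf discs in agar, each infested with 10 larvae (2nd instar Plutella, 3rd instar Phaedon), with four replicates per treatment. Mean percentage larval mortality was scored 4–5 days later at 25 °C.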

[4] = system: Phaedon cochleariae (Mustard Beetle); test: Test 3 a): leaf disc spray test, Phaedon cochleariae larvae; conditions: Phaedon cochleariae, foliar, read-out: Phaedon % m 10 ppm
Summary of the method: as §1

[5] = system: Megoura viciae (Vetch Aphid); test: Test 1(b): spray of infested tic bean plants, Megoura viciae; conditions: at 50 ppm, 2 days, score 0-3 per replicate, 4 replicates (maximum 12)
Method: One or more dilutions of the compounds to be tested were made in 50% aqueous acetone.
(b) Megoura viciae (Vetch Aphid)
Potted tic bean plants previously infected with mixed stages of Megoura were sprayed to run-off using a laboratory turntable sprayer. Treated plants were held in a greenhouse for 2 days and were assessed for aphid mortality using a scoring system, judging the response in comparison with plants treated with 50% aqueous acetone alone, as controls. Each treatment was replicated 4 times.

How did the mortality at 500 ppm [1] turn out when `Nc1c([N+](=O)[O-])c(Cl)nn1-c1c(Cl)cc(C(F)(F)F)cc1Cl` [Compound 106, 5-Amino-3-chloro-1-(2,6-dichloro-4-trifluoromethylphenyl)-4-nitropyrazole] was run?
Its mortality at 500 ppm is no less than 70%.

Which “mortality of Periplaneta americana” value [2] does the source give for `N#Cc1nn(-c2c(Cl)cc(C(F)(F)F)cc2Cl)c(NC(=O)C2CC2)c1C#N` [Compound 122, 5-Cyclopropylcarbonamido-1-(2,6-dichloro-4-trifluoromethylphenyl)-3,4-dicyanopyrazole] here?
The value was 100%.

`CC(=O)Nc1c([N+](=O)[O-])c(Br)nn1-c1c(Cl)cc(C(F)(F)F)cc1Cl` [Compound 102, 5-Acetamido-3-bromo-1-(2,6-dichloro-4-trifluoromethylphenyl)-4-nitropyrazole] was tested. Which mortality at 500 ppm [1] did it give?
Its mortality at 500 ppm is no less than 70%.

How did the mortality at 500 ppm [1] turn out when `CC(=O)Nc1c([N+](=O)[O-])c(C#N)nn1-c1c(Cl)cc(C(F)(F)F)cc1Cl` [Compound 104, 5-Acetamido-3-cyano-1-(2,6-dichloro-4-trifluoromethylphenyl)-4-nitropyrazole] was run?
Its mortality at 500 ppm is no less than 70%.

How did the pest or weed control at 500 ppm [3] turn out when `N#Cc1nn(-c2c(Cl)cc(C(F)(F)F)cc2Cl)c(N)c1C#N` [Compound 110, 5-Amino-1-(2,6-dichloro-4-trifluoromethylphenyl)-3,4-dicyanopyrazole] was run?
Its pest or weed control at 500 ppm is 89%.

And the pest or weed control at 10 ppm [4]?
The pest or weed control at 10 ppm was 100%.

And the “mortality of Periplaneta americana” value [2]?
Its value is 100%.

`CC(=O)Nc1c([N+](=O)[O-])c(Cl)nn1-c1c(Cl)cc(C(F)(F)F)cc1Cl` [Compound 103, 5-Acetamido-3-chloro-1-(2,6-dichloro-4-trifluoromethylphenyl)-4-nitropyrazole] was tested. Which mortality at 500 ppm [1] did it give?
Its mortality at 500 ppm is no less than 70%.

With `N#Cc1nn(-c2c(Cl)cc(C(F)(F)F)cc2Cl)c(N)c1[N+](=O)[O-]` [Compound 107, 5-Amino-3-cyano-1-(2,6-dichloro-4-trifluoromethylphenyl)-4-nitropyrazole] as the compound, how does the mortality at 500 ppm [1] read?
Its mortality at 500 ppm is no less than 70%.

How did the mortality at 500 ppm [1] turn out when `Nc1c([N+](=O)[O-])c(Br)nn1-c1c(Cl)cc(C(F)(F)F)cc1Cl` [Compound 105, 5-Amino-3-bromo-1-(2,6-dichloro-4-trifluoromethylphenyl)-4-nitropyrazole] was run?
The mortality at 500 ppm was no less than 70%.

How did the “mortality of Periplaneta americana” value [2] turn out when `N#Cc1nn(-c2ccc(C(F)(F)F)cc2Cl)c(N)c1C#N` [Compound 125, 5-Amino-1-(2-chloro-4-trifluoromethylphenyl)-3,4-dicyanopyrazole] was run?
The value was 100%.

For `C=CCSc1c(C#N)nn(-c2c(Cl)cc(C(F)(F)F)cc2Cl)c1N` [Compound 75, 4-Allylthio-5-amino-3-cyano-1-(2,6-dichloro-4-trifluoromethylphenyl)pyrazole], which “score against all stages of Megoura viciae” value [5] is on record?
The value was 7/12.

`N#Cc1nn(-c2c(Cl)cc(C(F)(F)F)cc2Cl)c(N)c1SC(Cl)(Cl)Cl` [Compound 11, 5-Amino-3-cyano-1-(2,6-dichloro-4-trifluoromethylphenyl)-4-trichloromethylthiopyrazole] was tested. Which “score against all stages of Megoura viciae” value [5] did it give?
Its value is 7/12.
